Laboratory results: the METLIN SMRT retention time set (Domingo-Almenara et al. 2019)

Assay: gradient 5% acetonitrile 3 min, to 50% in 2 min, to 85% in 15 min, held 3 min, 100 µL/min
Conditions: column: Zorbax Extend-C18 2.1 x 50 mm; eluents: water / acetonitrile, 0.1% formic acid
Summary of the method: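 Mixtures of ~100 pure standards were chromatographed on a Zorbax Extend-C18 column (2.1 × 50 mm, 1.8 μm) at 100 μL/min using water and acetonitrile, each with 0.1% formic acid. Detection used a quadrupole time-of-flight mass spectrometer in positive and negative ionization mode, and data collection spanned 3 months. Retention time was obtained from adduct peaks picked computationally and each checked manually.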

Row | SMILES | RP-LC retention time
1 | COc1ccc(CNC(=O)CN2C(=O)C3CCCCN3c3ccc(C(=O)N(C)C)cc32)c(OC)c1 (configuration not stated) | 756 s
2 | O=C(Cn1ccn2nc(-c3ccccc3)c(CO)c2c1=O)Nc1ccccc1 | 781 s
3 | CC(Oc1ccccc1)C(=O)N(C)CC1(C)CCOCC1 (configuration not stated) | 685 s
4 | CC(C)N1CCN(Cc2ccc(C(=O)NCCC3=CCCCC3)cc2)C(=O)C1=O | 760 s
5 | CNc1nc(NCc2ccc(NC(=O)c3ccc(F)cc3)cc2)c2ccccc2n1 | 692 s
6 | COc1ccc(Cc2nc(-c3ccc4c(c3)nc(C)c(=O)n4C)no2)cc1OC | 894 s
7 | CCCNc1cc(N2CCC(CCC(=O)NCc3ccc(F)c(Cl)c3)CC2)ncn1 | 713 s
8 | COc1ccccc1OCCNC(=O)CCc1nnc2c3cc(-c4ccc(F)cc4)nn3ccn12 | 752 s
9 | O=C(Nc1cnc(N2CCCCCC2)nc1)c1cc(F)ccc1F | 967 s
10 | CCOc1ccc(C(=O)N2CCC3(CC2)NC(=O)c2cc(F)ccc2N3C)cc1 | 767 s
11 | COc1ccc(C2(c3nc(C4CC(=O)N(c5ccc(C)cc5)C4)no3)CC2)cc1 (configuration not stated) | 1060 s
12 | COc1ccc(NC(=O)CSc2nccc(N3CCN(c4cc(C)ccc4C)CC3)n2)cc1Cl | 936 s
13 | Cc1ccc(-c2csc(NC(=O)c3ccccc3Br)n2)cc1 | 1080 s
14 | CCSc1ccc(Cc2nnc(NC(=O)c3cccs3)o2)cc1 | 807 s
15 | CCn1cc(S(=O)(=O)NCc2ccccc2F)c2cccnc21 | 799 s
16 | COc1ccc2sc(NCc3cccnc3)nc2c1 | 556 s
17 | CCNC(=O)c1cc(-c2ccc(F)cc2)n(C)c1C | 820 s
18 | CC1=NS(=O)(=O)N(Cc2ccccc2)C=C1C(=O)OCc1nc(-c2ccc(C)cc2)no1 | 1110 s
19 | Cc1cc(N(CCO)Cc2ccccc2)n2nc(-c3ccccc3C)nc2n1 | 786 s
20 | O=C(Nc1cc(F)cc(F)c1)NC1CCN(c2ccccc2)C1=O (configuration not stated) | 851 s
21 | COc1ccc(NC(=O)NC2CCN(c3ccc(F)c(C)c3)C2=O)cc1 (configuration not stated) | 798 s
22 | COc1ccc(OC)c(NC(=O)N2CCc3cn(CC(C)C)c4cccc(c34)C2)c1 | 1160 s
23 | CC(=O)Nc1nsc(N2CCC(C(=O)NCc3cc(F)cc(F)c3)CC2)n1 | 661 s

Results, then the molecule that gave them:

Row | RP-LC retention time | SMILES
24 | 621 s | Cc1cc(NC(=O)C2CCN(C(=O)Cc3c(C)noc3C)CC2)no1
25 | 942 s | CCn1cc(-c2nc(CC(=O)Nc3cccc(Cl)c3)cs2)c2cccnc21
26 | 959 s | Cn1nc(-c2nc(C3CC3)no2)c2c1CCN(C(=O)Nc1ccc(C(F)(F)F)cc1)C2
27 | 558 s | Cc1cccc2nnc(N3CCC(C(=O)NCc4ccc(N5CCCCC5)cc4)CC3)n12
28 | 721 s | COc1ccc(-c2nc3ccccn3c2Nc2ccccc2C)cc1
29 | 594 s | CCCN1C(=O)c2cccnc2Sc2cc(C(=O)N3CCN(CC)CC3)ccc21
30 | 1150 s | Fc1ccccc1N1CCN(c2ncccc2-c2nnc(-c3ccccc3)o2)CC1
31 | 1190 s | O=C(NCC1CCCCC1)c1sc2ncccc2c1-n1cccc1
32 | 818 s | COc1ccc(-n2ccn3cc(-c4cccs4)nc3c2=O)cc1Cl
33 | 585 s | CC(C)CCN1CCC(N2CCN(C(=O)C3CCCC3)CC2)C1=O (configuration not stated)
34 | 630 s | Cn1c(N2CCCC(C(=O)NCCCN3CCC(Cc4ccccc4)CC3)C2)cc(=O)n(C)c1=O (configuration not stated)
35 | 813 s | O=C(NCCc1ccco1)C1CCN(Cc2cc3ccccc3n2Cc2cccc(Cl)c2)CC1
36 | 762 s | Cc1cccc(CNC2=NCCNC23CCN(S(=O)(=O)c2ccc(Cl)cc2)CC3)c1
37 | 589 s | O=C(CN1C(=O)COc2ccc(C(=O)N3CCCC3)cc21)NCCN1CCCCCC1
